Experimental data published in paper PMC12452389, “Arginine-Derived Cationic Surfactants Containing Phenylalanine and Tryptophan: Evaluation of Antifungal Activity, Biofilm Eradication, Cytotoxicity, and Ecotoxicity” (Journal of Xenobiotics, 2025).
Converted amounts (≈) assume the structure as drawn. Read-outs that look alike come from different tables or passages of the source. Peptide text beside a SMILES is read from it. * marks the point of attachment. Lauroyl = CCCCCCCCCCCC(=O)*

Key:
erythrocytes = assay: Hemolytic activity assay; type: cell-based; conditions: rabbit erythrocytes
Description: Fresh rabbit blood was obtained from the Animal Facility of the CID-CSIC (Research and Development Center, Spanish National Research Council, Barcelona, Spain). Sample collection was conducted in strict compliance with the bioethical guidelines established under Spanish legislation. Erythrocytes were isolated by centrifugation (3000 rpm/10 min). The supernatant was discarded, and the erythrocytes were washed three times with PBS (phosphate-buffered saline, pH 7.4) and then resuspended in PBS at a concentration of 8 × 10^9 cells/mL. Subsequently, varying volumes of a concentrated surfactant solution were added to Eppendorf tubes containing 25 μL of erythrocyte suspension. PBS was then added to bring the total volume to 1 mL. The samples were gently shaken for 10 min at room temperature and centrifuged at 10,000 rpm for 5 min. Hemolysis was evaluated by measuring the absorbance of the supernatant at 540 nm and comparing it to that of a 100% hemolysis control (erythrocytes treated with distilled water). The HC50, defined as the surfactant concentration that induces 50% hemolysis, was determined from the concentration–response curves: % hemolysis= Abstest compound/AbsBasal haemolytic activity ×100

Daphnia magna = assay: Acute toxicity, immobilization test; type: in vivo; conditions: Daphnia magna, 48 h
Description: Aquatic toxicity evaluation was performed using Daphnia magna following established protocols. This bioassay method employs laboratory-cultured freshwater microcrustaceans to evaluate surfactant toxicity in aquatic environments. Test organisms were utilized during their initial 24 h life stage to ensure consistency. The endpoint measurement focused on mobility impairment, specifically the loss of swimming capability after gentle stimulation lasting 15 s. Testing conditions included controlled water chemistry parameters: pH maintained at 8.0, calcium-to-magnesium ratio of 4:1, and total hardness of 250 mg/L as CaCO3. All experiments were conducted under dark conditions at 20 °C. The experimental design incorporated ten test concentrations for each surfactant compound, distributed in geometric progression. Each concentration level included 20 Daphnia specimens distributed across four replicate groups of five organisms each. Mobility assessment occurred at 48 h post-exposure, with immobilization percentages plotted against concentration using probability–logarithmic scaling.

Vibrio fischeri = assay: Luminescence reduction test; type: cell-based; conditions: Aliivibrio fischeri, 0.25 h; Vibrio fischeri bioluminescence, 15 min of exposure; 95% confidence intervals in parentheses
Description: Ecotoxicological assessment of cationic surfactants was conducted using the Vibrio fischeri luminescent bioassay. This method relies on the measurement of decreased bioluminescent output from marine bacteria following contact with potentially toxic substances. Regression analysis was used to determine the concentration of the compound that caused a 50% reduction (EC50) in the amount of light emitted by the bacteria. The stated toxicity statistics given are based on the bacteria being exposed to the ionic liquid solution for 15 min at 15 °C.

[1] = set-up: method as in PMID 36559096; conditions: conductivity values; cited from earlier work
[2] = Surface tension, pendant drop tensiometer (cmc, γc); type: physicochemical; conditions: for cmc: from surface tension
Description: Surface tension was measured using a custom-built pendant drop tensiometer, as described in detail in reference. Briefly, a droplet of surfactant solution is formed at the tip of a straight-cut Teflon tube. The image of the droplet is captured using a webcam, and its shape is analyzed by fitting the droplet profile to the Laplace–Young equation [14], To minimize evaporation, all measurements were conducted in a saturated humid atmosphere. The use of this technique is especially well-suited for cationic surfactants because it helps to mitigate complications related to surface adsorption. Critical micelle concentration values (cmc) were determined by finding the intersection of the linear fits before and after the break in the curves.

[3] = system: Candida glabrata ATCC 66032; assay: MIC broth microdilution; type: cell-based; conditions: for Selectivity Index (HC50/MIC): Table S1; for MIC: Nakaseomyces glabratus, read-out: MIC
Description: (§1) The antimicrobial activity of these compounds was assessed against selected yeast and bacterial strains: Candida albicans ATCC 90028 (CA9), Candida rugosa ATCC 10571 (CR), Candida glabrata ATCC 66032 (CG), Candida parapsilosis ATCC 22019 (CP), Candida tropicalis ATCC 7349 (CT), Candida auris ATCC 21092 (CA), and Cyberlindnera jadinii ATCC 60459. Frozen yeast stocks were plated on Sabouraud agar (SBA) and incubated at 30 °C for 24 h. Three to four colonies from each strain were then suspended in RPMI 1640 (Roswell Park Memorial Institute medium, Sigma- Aldrich, Merck, Darmstadt, Germany) to prepare bacterial dispersions of ~1.5 × 10^6 CFU/mL.
(§2) A broth microdilution assay was used to calculate MIC values. Twofold serially diluted compounds in RPMI 1640 medium (from 256 to 2 μg/mL), were dispensed (100 μL per well) into a 96-well plate. Then, 100 μL of a yeast starter culture was added to each well to reach a final inoculum of 7.5 × 10^5 CFU/mL. Wells containing only nutrient broth without the tested surfactant served as growth controls. Microbial growth was assessed by turbidity, which reflects increases in biomass and cell count. […] To confirm the obtained MICs, 20 μL of 0.015% (w/v) resazurin was dispensed to each well and incubated for 3 h at 30 °C. Metabolic activity was evidenced by a color change from blue to pink, thereby confirming the MIC value.

[4] = system: Cyberlindnera jadinii ATCC 60459 (C. jardinii); assay: MIC broth microdilution; type: cell-based; conditions: for Selectivity Index (HC50/MIC): C. jardini, Table S1; for MIC: Williopsis jadinii
Description: as §1, §2

[5] = system: Candida rugosa ATCC 10571; assay: MIC broth microdilution; type: cell-based; conditions: C. rugosa; for Selectivity Index (HC50/MIC): Table S1; for MIC: Diutina rugosa, ATCC10571, read-out: MIC
Description: as §1, §2

[6] = system: Candida parapsilosis ATCC 22019; assay: MIC broth microdilution; type: cell-based; conditions: C. parapsilosis; for Selectivity Index (HC50/MIC): Table S1; for MIC: Lodderomyces parapsilosis, ATCC22019, read-out: MIC
Description: as §1, §2

[7] = system: Candida tropicalis ATCC 7349; assay: MIC broth microdilution; type: cell-based; conditions: C. tropicalis; for Selectivity Index (HC50/MIC): Table S1; for MIC: Candida tropicalis, ATCC7349, read-out: MIC
Description: as §1, §2

[8] = system: Candida albicans ATCC 90028; assay: MIC broth microdilution; type: cell-based; conditions: C. albicans; for Selectivity Index (HC50/MIC): Table S1; for MIC: Candida albicans, ATCC90028, read-out: MIC
Description: as §1, §2

Candida auris ATCC 21092 = assay: MIC broth microdilution; type: cell-based; conditions: C. auris; for Selectivity Index (HC50/MIC): Table S1; for MIC: Candidozyma auris, ATCC21092, read-out: MIC
Description: as §1, §2

[9] = ATCC66032, 24 h, C. glabrata, RPMI 1640, 24 h, 30 °C
[10] = ATCC66032, C. glabrata, value in parentheses

Work on CCCCCCCCCCCC(=O)NC(CCCNC(=N)N)C(=O)OC (stereo not drawn) [C12AM] yielded an HC50 (erythrocytes; 10 min, room temperature) of 109 ± 0.6 µg/mL, an HC50 (erythrocytes; value in parentheses) of 270 ± 1.7 µM and an EC50 (Daphnia magna) of 4.4 µg/mL (≈ 11.9 µM). The EC50 (Vibrio fischeri) was 1.9 µg/mL (≈ 5.13 µM), the “cmc Cond” value [1] was 6 mM and the “γc (surface tension at the cmc)” value [2] was 29.5 ± 1.5 mNm^−1. The cmc [2] was 1.7 mM, the “Selectivity Index (HC50/MIC)” value ([3]; C. glabrata) was 7 and the MIC [3, 9] was 16 µg/mL. For the same compound, the MIC [3, 10] was 39 µM, the “Selectivity Index (HC50/MIC)” value [4] was 1.7 and the MIC ([4]; ATCC60459) was 156 µM. For the same compound, the MIC ([4]; ATCC60459, 24 h) was 64 µg/mL, the “Selectivity Index (HC50/MIC)” value [5] was 1.7 and the MIC ([5]; RPMI 1640, 24 h, 30 °C) was 64 µg/mL. The MIC ([5]; value in parentheses) was 156 µM, the “Selectivity Index (HC50/MIC)” value [6] was 7 and the MIC ([6]; RPMI 1640, 24 h, 30 °C) was 16 µg/mL. For the same compound, the MIC ([6]; value in parentheses) was 39 µM, the “Selectivity Index (HC50/MIC)” value [7] was 14 and the MIC ([7]; RPMI 1640, 24 h, 30 °C) was 8 µg/mL. For the same compound, the MIC ([7]; value in parentheses) was 19 µM, the “Selectivity Index (HC50/MIC)” value [8] was 3.4 and the MIC ([8]; RPMI 1640, 24 h, 30 °C) was 32 µg/mL. For the same compound, the MIC ([8]; value in parentheses) was 78 µM, the “Selectivity Index (HC50/MIC)” value (Candida auris ATCC 21092) was 0.9 and the MIC (Candida auris ATCC 21092; RPMI 1640, 24 h, 30 °C) was 128 µg/mL. For the same compound, the MIC (Candida auris ATCC 21092; value in parentheses) was 312 µM.
In the case of CCCCCCCCCCCC(=O)NC(Cc1ccccc1)C(=O)NC(CCCNC(=N)N)C(=O)OC (stereo not drawn) [C12PAM] (Lauroyl-Phe-Arg-OMe; configuration not given here), the HC50 (erythrocytes; 10 min, room temperature) is listed as 23 ± 0.8 µg/mL, the HC50 (erythrocytes; value in parentheses) is listed as 42 ± 1.5 µM and the “cmc Cond” value [1] is listed as 1.2 mM. For the same compound, the “γc (surface tension at the cmc)” value [2] was 29.5 ± 2.7 mNm^−1, the cmc [2] was 0.7 mM and the “Selectivity Index (HC50/MIC)” value ([3]; C. glabrata) was 1.4. The MIC [3, 9] was 16 µg/mL, the MIC [3, 10] was 29 µM and the “Selectivity Index (HC50/MIC)” value [4] was 0.4. The MIC ([4]; ATCC60459) was 116 µM, the MIC ([4]; ATCC60459, 24 h) was 64 µg/mL and the “Selectivity Index (HC50/MIC)” value [5] was 6. The MIC ([5]; RPMI 1640, 24 h, 30 °C) was 4 µg/mL, the MIC ([5]; value in parentheses) was 7 µM and the “Selectivity Index (HC50/MIC)” value [6] was 1.4. The MIC ([6]; RPMI 1640, 24 h, 30 °C) was 16 µg/mL, the MIC ([6]; value in parentheses) was 29 µM and the “Selectivity Index (HC50/MIC)” value [7] was 1.4. For the same compound, the MIC ([7]; RPMI 1640, 24 h, 30 °C) was 16 µg/mL, the MIC ([7]; value in parentheses) was 29 µM and the “Selectivity Index (HC50/MIC)” value [8] was 1.4. For the same compound, the MIC ([8]; RPMI 1640, 24 h, 30 °C) was 16 µg/mL, the MIC ([8]; value in parentheses) was 29 µM and the “Selectivity Index (HC50/MIC)” value (Candida auris ATCC 21092) was 0.7. For the same compound, the MIC (Candida auris ATCC 21092; RPMI 1640, 24 h, 30 °C) was 32 µg/mL and the MIC (Candida auris ATCC 21092; value in parentheses) was 58 µM.
